Tested on: yeast genes (level of expressed mRNA)
Test: DNA chip analysis of expressed mRNA of yeast genes after 2 h culture with a toxic chemical substance
Type: cell-based, Saccharomyces cerevisiae S288C
Method: Yeast (Saccharomyces cerevtisiae S288C (α SUC2mal mel gap2 CUP1)) were cultured at 25° C. on YPD medium (yeast extract 1%, polypepton 2%, glucose 2%). One of toxic chemical substances was added to the cell at logarithmic growth phase, and the cell was further cultured for two hours. Cell was cultured without any chemical substance in the same condition, and was used as control. Concentrations of the chemical substances were defined to inhibit the growth of the yeast but not lead to death.
After the completion of cultivation, the culture was centrifuged to collect the cells. To the cells, sodium acetate buffer (50 mM sodium acetate, 10 mM EDTA, 1% SDS) was added, and the mixture was shaken at 65° C. for five minutes, followed by returning to room temperature, and obtaining the supernatant, which procedure was repeated two times. To the supernatant, ½ amount of a solution of phenol/chloroform was added, and the mixture was centrifuged to give a supernatant, which was added with an equal amount of chloroform, and the mixture was centrifuged to give a supernatant. To the supernatant, an equal amount of isopropanol containing 0.3 M sodium acetate was added, and the mixture was allowed to stand at room temperature for 30 minutes, after which the mixture was centrifuged to give a sediment of the whole RNAs. Seventy % ethanol was added to the sediment, and the mixture was again centrifuged to give a sediment, which was then dried and dissolved in water. mRNA was isolated from the whole RNAs as followings. In view of the fact that a poly A chain is attached to the 3′ terminus of mRNA, a polynucleotide having a poly T structure which was immobilized on the surface of latex beads was used to trap the mRNA, and then the mRNA was washed and eluted with spine column (Oligotex-dT30<Super>mRNA Purification Kit, Takara). Reverse transcription of the mRNA was conducted with a reverse transcriptase (Super Script II Reverse Transcriptase; catalogue No. 18064-014, GibcoBRL) using fluorescence-labeled nucleotides to give cDNAs that were introduced with Cy3-dUTP or Cy5-dUTP during the reverse transcription.
The labeled cDNAs were dissolved in TE buffer (10 mM Tris-HCl/1 mM EDTA, pH8.0), and the solution was dropped on the DNA chip containing the whole genes of yeast (DNA Chip Research Inc. Japan) so that the cDNAs were hybridized on the DNA chip at 65° C. for over 12 hours. The fluoresces intensity of the DNA chip was read with a scanner, and the ratio relative to the fluorescence intensity resulting from the absence of chemical substance was estimated as the following, which is shown in Tables 1 to 9: [formula]
In the Tables, “Intensity” indicated in the rightmost column is a value of the level of expressed mRNA of each gene in control cells as divided by the average level of the expressions of the whole genes.

γ-hexachlorocyclohexane [(7)]
The level of expressed mRNA in the presence of chemical substance/ (yeast gene YNL074C, ratio to control without chemical substance, 2 h culture): 1.1 | The level of expressed mRNA in the presence of chemical substance/ (yeast gene YNL092W, ratio to control without chemical substance, 2 h culture): 1.6 | The level of expressed mRNA in the presence of chemical substance/The level of expressed mRNA in the absence of chemical substance (yeast gene YNL093W): 1.4 | The level of expressed mRNA in the presence of chemical substance/ (yeast gene YNL115C, ratio to control without chemical substance, 2 h culture): 2.4 | The level of expressed mRNA in the presence of chemical substance/ (yeast gene YNL156C, ratio to control without chemical substance, 2 h culture): 1.9 | The level of expressed mRNA in the presence of chemical substance/ (yeast gene YNL234W, ratio to control without chemical substance, 2 h culture): 1.2 | The level of expressed mRNA in the presence of chemical substance/ (yeast gene YNL281W, ratio to control without chemical): 1.2 | The level of expressed mRNA in the presence of chemical substance/ (yeast gene YNL305C, ratio to control without chemical): 1.7 | The level of expressed mRNA in the presence of chemical substance/The level of expressed mRNA in the absence of chemical substance (yeast gene YNL333W): 2.9 | The level of expressed mRNA in the presence of chemical substance/The level of expressed mRNA in the absence of chemical substance (yeast gene YNR010W): 1.5 | The level of expressed mRNA in the presence of chemical substance/ (yeast gene YNR068C, ratio to control without chemical): 1.8 | The level of expressed mRNA in the presence of chemical substance/The level of expressed mRNA in the absence of chemical substance (yeast gene YNR069C): 1.4 | The level of expressed mRNA in the presence of chemical substance/in the absence of chemical substance (yeast gene YNR072W): 1.5 | The level of expressed mRNA in the presence of chemical substance/The level of expressed mRNA in the absence of chemical substance (yeast gene YOL013C): 1.7 | The level of expressed mRNA in the presence of chemical substance/ (yeast gene YOL032W, ratio to control without chemical): 1.4 | The level of expressed mRNA in the presence of chemical substance/ (yeast gene YOL036W, ratio to control without chemical): 1.0 | The level of expressed mRNA in the presence of chemical substance/ (yeast gene YOL047C, ratio to control without chemical): 1.3 | The level of expressed mRNA in the presence of chemical substance/ (yeast gene YOL071W, ratio to control without chemical): 2.0 | The level of expressed mRNA in the presence of chemical substance/ (yeast gene YOL082W, ratio to control without chemical): 2.5 | The level of expressed mRNA in the presence of chemical substance/ (yeast gene YOL083W, ratio to control without chemical): 3.1 | The level of expressed mRNA in the presence of chemical substance/in the absence of chemical substance (yeast gene YOL096C): 1.7 | The level of expressed mRNA in the presence of chemical substance/ (yeast gene YOL117W, ratio to control without chemical): 1.6 | The level of expressed mRNA in the presence of chemical substance/ (yeast gene YOL131W, ratio to control without chemical): 1.3 | The level of expressed mRNA in the presence of chemical substance/ (yeast gene YOL150C, ratio to control without chemical substance, 2 h culture): 2.4 | The level of expressed mRNA in the presence of chemical substance/ (yeast gene YOL162W, ratio to control without chemical): 2.0 | The level of expressed mRNA in the presence of chemical substance/The level of expressed mRNA in the absence of chemical substance (yeast gene YOL164W): 2.2 | The level of expressed mRNA in the presence of chemical substance/ (yeast gene YOR019W, ratio to control without chemical): 2.8 | The level of expressed mRNA in the presence of chemical substance/The level of expressed mRNA in the absence of chemical substance (yeast gene YOR036W): 1.8 | The level of expressed mRNA in the presence of chemical substance/The level of expressed mRNA in the absence of chemical substance (yeast gene YOR117W): 3.3 | The level of expressed mRNA in the presence of chemical substance/The level of expressed mRNA in the absence of chemical substance (yeast gene YOR124C): 1.1 | The level of expressed mRNA in the presence of chemical substance/The level of expressed mRNA in the absence of chemical substance (yeast gene YOR132W): 1.4 | The level of expressed mRNA in the presence of chemical substance/The level of expressed mRNA in the absence of chemical substance (yeast gene YOR157C): 1.2 | The level of expressed mRNA in the presence of chemical substance/in the absence of chemical substance (yeast gene YOR180C): 0.8 | The level of expressed mRNA in the presence of chemical substance/The level of expressed mRNA in the absence of chemical substance (yeast gene YOR181W): 0.7 | The level of expressed mRNA in the presence of chemical substance/The level of expressed mRNA in the absence of chemical substance (yeast gene YOR185C): 1.3 | The level of expressed mRNA in the presence of chemical substance/ (yeast gene YOR197W, ratio to control without chemical): 0.9 | The level of expressed mRNA in the presence of chemical substance/The level of expressed mRNA in the absence of chemical substance (yeast gene YOR198C): 1.6 | The level of expressed mRNA in the presence of chemical substance/The level of expressed mRNA in the absence of chemical substance (yeast gene YOR259C): 1.3 | The level of expressed mRNA in the presence of chemical substance/The level of expressed mRNA in the absence of chemical substance (yeast gene YOR261C): 1.9 | The level of expressed mRNA in the presence of chemical substance/The level of expressed mRNA in the absence of chemical substance (yeast gene YOR288C): 2.0 | The level of expressed mRNA in the presence of chemical substance/The level of expressed mRNA in the absence of chemical substance (yeast gene YOR355W): 1.1 | The level of expressed mRNA in the presence of chemical substance/in the absence of chemical substance (yeast gene YOR363C): 0.7 | The level of expressed mRNA in the presence of chemical substance/The level of expressed mRNA in the absence of chemical substance (yeast gene YOR383C): 8.0 | The level of expressed mRNA in the presence of chemical substance/ (yeast gene YPL087W, ratio to control without chemical): 4.2 | The level of expressed mRNA in the presence of chemical substance/The level of expressed mRNA in the absence of chemical substance (yeast gene YPL089C): 0.9 | The level of expressed mRNA in the presence of chemical substance/The level of expressed mRNA in the absence of chemical substance (yeast gene YPL109C): 1.8 | The level of expressed mRNA in the presence of chemical substance/The level of expressed mRNA in the absence of chemical substance (yeast gene YPL149W): 1.2 | The level of expressed mRNA in the presence of chemical substance/The level of expressed mRNA in the absence of chemical substance (yeast gene YPL154C): 1.5 | The level of expressed mRNA in the presence of chemical substance/ (yeast gene YPL196W, ratio to control without chemical): 2.4 | The level of expressed mRNA in the presence of chemical substance/ (yeast gene YPL206C, ratio to control without chemical): 1.2 | The level of expressed mRNA in the presence of chemical substance/ (yeast gene YPL222W, ratio to control without chemical): 1.1 | The level of expressed mRNA in the presence of chemical substance/ (yeast gene YPR023C, ratio to control without chemical): 1.2 | The level of expressed mRNA in the presence of chemical substance/The level of expressed mRNA in the absence of chemical substance (yeast gene YPR103W): 1.6 | The level of expressed mRNA in the presence of chemical substance/The level of expressed mRNA in the absence of chemical substance (yeast gene YPR108W): 1.6 | The level of expressed mRNA in the presence of chemical substance/ (yeast gene YPR151C, ratio to control without chemical): 4.4 | The level of expressed mRNA in the presence of chemical substance/in the absence of chemical substance (yeast gene YPR184W): 1.3
